Measurements taken from PubChem BioAssay (NCI).
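Cultured in 96-well plates, cells were exposed to test compound for 48 hours across five concentrations. At the TGI there is no net growth.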

Experiments:
Experiment in all cases: inhibition of tumour cell growth, NCI panel, 48 h
BT-549 breast = tested on: BT-549 breast
HCT-116 colon = tested on: HCT-116 colon
MDA-MB-231 breast = tested on: MDA-MB-231 breast
NCI-H522 lung = tested on: NCI-H522 lung
OVCAR-5 ovarian = tested on: OVCAR-5 ovarian
PC-3 prostate = tested on: PC-3 prostate
SK-MEL-28 melanoma = tested on: SK-MEL-28 melanoma
SNB-75 CNS = tested on: SNB-75 CNS
SR leukemia = tested on: SR leukemia
U251 CNS = tested on: U251 CNS

Row | Structure (SMILES) | TGI (BT-549 breast) | TGI (HCT-116 colon) | TGI (MDA-MB-231 breast) | TGI (NCI-H522 lung) | TGI (OVCAR-5 ovarian) | TGI (PC-3 prostate) | TGI (SK-MEL-28 melanoma) | TGI (SNB-75 CNS) | TGI (SR leukemia) | TGI (U251 CNS)
1 | Cc1cn(CC2=NCCN2)c(=O)[nH]c1=O | > 100 µM | > 100 µM | > 100 µM | > 100 µM | > 100 µM | > 100 µM | > 100 µM | > 100 µM | > 100 µM | > 100 µM
2 | COc1cc2c(cc1OC)C1Cc3ccccc3CCN1CC2 (stereo not given) | > 100 µM | > 100 µM | > 100 µM | > 100 µM | > 100 µM | > 100 µM | > 100 µM | > 100 µM | > 100 µM | > 100 µM
3 | Nc1nc(Cl)c(C=O)c(NCC2(CO)CC(CCc3ccccc3)C2)n1 (stereo not given) | 27.5 µM | 27.3 µM | 23.7 µM | 3.56 µM | 33.3 µM | 16.3 µM | 12.1 µM | 37.5 µM | 4.15 µM | 26.6 µM
4 | Clc1ccccc1/C=C/c1nsc(/C=C/c2ccccc2Cl)n1 | > 100 µM | > 100 µM | > 100 µM | > 100 µM | > 100 µM | > 100 µM | > 100 µM | > 100 µM | 55.6 µM | > 100 µM
5 | CC(C)(C)c1cc(C(=O)/C=C/c2ccc(O)c(O)c2O)cc(C(C)(C)C)c1O | 28.2 µM | 12.7 µM | 36 µM | 4.94 µM | 39.1 µM | 15.7 µM | 28.1 µM | 12.6 µM | 4.67 µM | 12.3 µM
6 | O=C(c1ccc(Cl)cc1Cl)N(Cc1cccnc1)C(=S)N(Cc1cccnc1)C(=O)c1ccc(Cl)cc1Cl | 14.8 µM | 6.19 µM | 6.53 µM | 9.8 µM | 23.2 µM | 7.55 µM | 33.7 µM | 14 µM | > 100 µM | 9.88 µM
7 | O=C(O)C(Cc1ccc2c(c1)CCC2)(Cc1ccc2c(c1)CCC2)C(=O)O | > 100 µM | > 100 µM | > 100 µM | > 100 µM | > 100 µM | > 100 µM | > 100 µM | > 100 µM | > 100 µM | > 100 µM
8 | Cn1c(=O)n2n(c1=O)Cc1cccc3cccc(c13)C2 | > 100 µM | > 100 µM | > 100 µM | > 100 µM | > 100 µM | > 100 µM | > 100 µM | > 100 µM | > 100 µM | > 100 µM
9 | COC(=O)C1Cc2ccc(C)cc2C1=O (stereo not given) | > 100 µM | > 100 µM | > 100 µM | > 100 µM | > 100 µM | > 100 µM | > 100 µM | > 100 µM | > 100 µM | > 100 µM
10 | COC(=O)C1Cc2c([nH]c3ccccc23)C(c2cccc(O)c2)N1 (stereo not given) | 72 µM | > 100 µM | 51.2 µM | > 100 µM | 82.9 µM | 80.3 µM | 73.4 µM | 74.3 µM | 76.1 µM | > 100 µM
11 | N=C(/C=C/c1ccc(-c2cn3cc(/C=C/C(=N)N4CCCC4)ccc3n2)cc1)N1CCCC1 | > 100 µM | > 100 µM | > 100 µM | > 100 µM | > 100 µM | > 100 µM | > 100 µM | > 100 µM | > 100 µM | > 100 µM
12 | O/N=c1/ccn(O)c2ccccc12 | 3.13 µM | 11.3 µM | 5.4 µM | 3.23 µM | 14.7 µM | 8.88 µM | 3.16 µM | 1.98 µM | 55.8 µM | 6.65 µM
13 | Cc1ccc(S(=O)(=O)N2CCCSCCSCCCSCC2)cc1 | > 100 µM | > 100 µM | > 100 µM | > 100 µM | > 100 µM | > 100 µM | > 100 µM | > 100 µM | > 100 µM | > 100 µM
14 | COc1c(Cl)ccc(Cl)c1C(=O)NNC(=O)c1c(Cl)c(Cl)c(Cl)c(Cl)c1-c1nc2ccc(C(=O)c3ccccc3)cc2[nH]1 | > 100 µM | > 100 µM | > 100 µM | > 100 µM | > 100 µM | > 100 µM | > 100 µM | > 100 µM | > 100 µM | > 100 µM
15 | CCOC(=O)c1cccc(NC(=O)CBr)c1 | 4.15 µM | 1.88 µM | 3.51 µM | 0.0437 µM | 3.28 µM | 2.94 µM | 7.75 µM | 3.31 µM | 0.521 µM | 1.89 µM
16 | O=S(=O)(c1cc(Cl)ccc1Cl)N1CCN(c2ccc(Cl)c(Cl)c2)CC1 | > 100 µM | > 100 µM | > 100 µM | 56.5 µM | > 100 µM | > 100 µM | > 100 µM | 33.1 µM | > 100 µM | 54.8 µM
17 | Cc1cccc(/C=N/NC(=S)NCc2ccccn2)n1 | > 100 µM | > 100 µM | > 100 µM | > 100 µM | > 100 µM | > 100 µM | > 100 µM | 73.6 µM | > 100 µM | > 100 µM
